Reference: patent US6410596B1 (Insmed Incorporated, priority 2000, dated 2002)

Key:
[1] = system: C57BL/ks diabetic (db/db) mice; test: Plasma glucose lowering in diabetic db/db mice; format: in vivo; conditions: for Change in Glucose 6 H: 125 mg/kg q.d. oral (0, 24, 48 h), 6 h after initial dose, Table 8 experiment (FIG. 5)
Procedure: (§1) Genetically altered obese diabetic mice (designated C57BL/ks diabetic or db/db) were purchased from the Jackson Laboratory (Bar Harbor, Me., USA), and served as experimental animals. Male animals between the ages of 8-9 weeks were employed in the studies described here. Animals were housed (4 mice/cage) under standard laboratory conditions at 22° C. and 50% relative humidity, and were maintained on a diet of Purina rodent chow and water ad libitum. Prior to treatment, blood was collected from the tail vein of each a nimal. Mice that had plasma glucose levels between 350 and 600 mg/dL were used. Each treatment group consisted of eight mice that were distributed so that the mean glucose levels were equivalent in each group at the start of the study. Db/db mice received, orally by gavage: the experimental compound administered at 62.5, 125, or 250 mg/kg/day (unless otherwise noted), or metformin administered at […] for 1-3 days, Test compounds were delivered in a liquid vehicle containing 0.25% (w/v) carboxymethyl-cellulose, 1% (v/v) Tween 60® (polyoxyethylene sorbitan monosterate), and up to 10% (v/v) dimethyl sulfoxide (DMSO) in a volume of 10 ml/kg. Blood was sampled from the tail vein at three hours, six, eight, twenty-four, and thirty hours post-administration (the first administration) of the particular compound in non-fasted conditions. Experiments 3-5 also sampled blood at fifty-four hours post-administration (the first administration) of the particular compound in non-fasted conditions. Blood samples were analyzed for plasma glucose levels. Individual body weights and mean food consumption (each cage) were also measured daily.
The isolated test substances were prepared as described previously (vide supra). Metformin (1,1-dimethylbiguanide), carboxymethyl cellulose and Tween 60 were purchased from Sigma Chemical Co. (St. Louis, Mo., USA; catalog #'s D-5035, C-4888, and p-1629, respectively). Plasma glucose levels were determined […] using glucose oxidase (Sigma Chemical Co.; Sigma catalog #315). Significant differences between groups (comparing compound-treated to vehicle-treated) were evaluated using analysis of variance and Fisher's post-hoc test. […]

[2] = Body weights and food consumption in diabetic db/db mice; format: in vivo
Procedure: as §1

[3] = 125 mg/kg oral, Table 10 experiment
[4] = 125 mg/kg oral, Table 8 experiment
[5] = 125 mg/kg, Table 10/11 experiment

COc1cc(/C=C/c2ccccc2)cc(O)c1CC=C(C)C [Compound D, 3-hydroxy-5-methoxy-4-(3-methyl-2-butenyl)stilbene]
hypoglycemic effect relative to vehicle [1, 3]: statistically significant reduction in plasma glucose
Food Intake 0-48 h ([2]; 125 mg/kg, Table 11): 5.7 g/mouse
Body weight (mean) 0 h ([2]; 125 mg/kg, Table 11): 39.3 ± 0.6 g/mouse
Body weight (mean) 48 hr ([2]; 125 mg/kg, Table 11): 39.7 ± 0.7 g/mouse

COc1cc(O)cc(CCc2ccccc2)c1 [Compound G, 3-hydroxy-5-methoxybibenzene]
hypoglycemic effect relative to vehicle [1, 4]: statistically significant reduction in plasma glucose
Change in Glucose 6 H [1]: 35.0 mg/dL
effect on food intake or body weight ([2]; 125 mg/kg, Table 8 experiment): absence of any significantly adverse effect on food intake or body weight
effect on food intake or body weight [2, 5]: absence of any significantly adverse effect on food intake or body weight

COc1cc(O)cc(CCc2ccccc2)c1CC=C(C)C [Compound E]
hypoglycemic effect relative to vehicle [1, 4]: statistically significant reduction in plasma glucose
hypoglycemic effect relative to vehicle [1, 3]: statistically significant reduction in plasma glucose
Change in Glucose 6 H [1]: -2.1 mg/dL
Food Intake 0-48 h ([2]; 125 mg/kg, Table 11): 5.7 g/mouse
Body weight (mean) 0 h ([2]; 125 mg/kg, Table 11): 39.6 ± 0.3 g/mouse
Body weight (mean) 48 hr ([2]; 125 mg/kg, Table 11): 40.2 ± 0.4 g/mouse
effect on food intake or body weight ([2]; 125 mg/kg, Table 8 experiment): absence of any significantly adverse effect on food intake or body weight
effect on food intake or body weight [2, 5]: absence of any significantly adverse effect on food intake or body weight

COc1cc(O)cc(CCc2ccccc2)c1CCC(C)C [Compound F]
hypoglycemic effect relative to vehicle [1, 3]: statistically significant reduction in plasma glucose
Food Intake 0-48 h ([2]; 125 mg/kg, Table 11): 5.8 g/mouse
Body weight (mean) 0 h ([2]; 125 mg/kg, Table 11): 39.3 ± 0.8 g/mouse
Body weight (mean) 48 hr ([2]; 125 mg/kg, Table 11): 39.8 ± 0.8 g/mouse

5-hydroxy-3-methoxy-2-(3-methyl-2-butenyl)stilbene [Compound A]
mean glucose levels declined from the baseline values ([1]; decline, 62.5 mg/kg, 30 h after initial dosing, Tables 4/6 experiment): 40.7 mg/dL
mean glucose levels declined from the baseline values ([1]; decline, 125 mg/kg, 30 h after initial dosing, Tables 4/6 experiment): 69.7 mg/dL
mean glucose levels declined from the baseline values ([1]; decline, 250 mg/kg (also metformin 250 mg/kg), 30 h after initial dosing, Tables 4/6 experiment): 221.4 mg/dL

COc1cc(/C=C/c2ccccc2)c(C(=O)O)c(O)c1CC=C(C)C [Compound C, 3-hydroxy-4-(3-methyl-2-butenyl)-5-methoxystilbene-2-carboxylic acid]
hypoglycemic effect relative to vehicle ([1]; 250 mg/kg oral, FIG. 2 experiment): statistically significant reduction in plasma glucose
hypoglycemic effect relative to vehicle ([1]; 62.5, 125, and 250 mg/kg oral, Tables 4/6 experiment): statistically significant reduction in plasma glucose
mean glucose levels declined from the baseline value ([1]; decline, 125 mg/kg, 54 h after initial dosing, Tables 4/6 experiment): 60.4 mg/dL
mean glucose levels declined from the baseline values ([1]; decline, 250 mg/kg (also metformin 250 mg/kg), 54 h after initial dosing, Tables 4/6 experiment): 122.0 mg/dL
effect on food intake or body weight ([2]; 62.5 mg/kg, 125 mg/kg, and 250 mg/kg, Tables 4/6 experiment): absence of any significantly adverse effect on food intake or body weight
effect on food intake or body weight ([2]; 250 mg/kg, FIG. 2 experiment): absence of any significantly adverse effect on food intake or body weight
food intake versus normal food intake range (5-6 g/day/mouse) ([2]; 250 mg/kg, FIG. 2 experiment): less than that of the normal food intake range
food intake versus normal food intake range (5-6 g/day/mouse) ([2]; 250 mg/kg, Tables 4/6 experiment): less than that of the normal food intake range

CN(C)C(=N)N=C(N)N [Metformin, 1,1-dimethylbiguanide, reference compound]
Food Intake 0-48 h ([2]; 250 mg/kg, Table 5): 5.1 g/mouse
Body weight (mean) 0 h ([2]; 250 mg/kg, Table 5): 37.3 ± 0.7 g/mouse
Body weight (mean) 48 hr ([2]; 250 mg/kg, Table 5): 37.2 ± 0.6 g/mouse
